pIC50: −log10 of the molar value. Like-named read-outs stand apart in the source and are kept apart here.
Experiments:
LNCaP cells = experiment: LNCaP cell viability assay (CellTiter-Glo); type: cell-based; conditions: Homo sapiens, 72 h; LNCaP prostate cancer cell viability inhibition, 3 days, CellTiter-Glo (Table 3)
In short: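 LNCaP cells, 5000/well, exposed to compounds in 12-point 3-fold serial dilution (top 10 μM) for 3 days. Viability by CellTiter-Glo luminescence, normalized to untreated cells; IC50 by least-squares nonlinear regression.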

P300 = P300 (Homo sapiens, UniProt Q09472); experiment: Immunoblotting of P300 protein levels in LNCaP or 22RV1 cells; type: cell-based; set-up: LNCaP or 22RV1 cells that express CBP/P300 proteins were treated with GNE-781 or the bivalent compounds; endogenous in cells; host or cells: LNCaP (clone FGC) or 22RV1 cells; conditions: read-out: Degradation (10 nM)
In short: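 LNCaP or 22RV1 cells treated with compounds for indicated hours, DMSO as negative control. RIPA lysates resolved by SDS-PAGE and immunoblotted for P300 or CBP, tubulin or vinculin as loading control; chemiluminescent bands quantitated.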

[1] = percentage of inhibition of p300 at 10 nM (Table 3)

Chain of P300 (Q09472 whole entry): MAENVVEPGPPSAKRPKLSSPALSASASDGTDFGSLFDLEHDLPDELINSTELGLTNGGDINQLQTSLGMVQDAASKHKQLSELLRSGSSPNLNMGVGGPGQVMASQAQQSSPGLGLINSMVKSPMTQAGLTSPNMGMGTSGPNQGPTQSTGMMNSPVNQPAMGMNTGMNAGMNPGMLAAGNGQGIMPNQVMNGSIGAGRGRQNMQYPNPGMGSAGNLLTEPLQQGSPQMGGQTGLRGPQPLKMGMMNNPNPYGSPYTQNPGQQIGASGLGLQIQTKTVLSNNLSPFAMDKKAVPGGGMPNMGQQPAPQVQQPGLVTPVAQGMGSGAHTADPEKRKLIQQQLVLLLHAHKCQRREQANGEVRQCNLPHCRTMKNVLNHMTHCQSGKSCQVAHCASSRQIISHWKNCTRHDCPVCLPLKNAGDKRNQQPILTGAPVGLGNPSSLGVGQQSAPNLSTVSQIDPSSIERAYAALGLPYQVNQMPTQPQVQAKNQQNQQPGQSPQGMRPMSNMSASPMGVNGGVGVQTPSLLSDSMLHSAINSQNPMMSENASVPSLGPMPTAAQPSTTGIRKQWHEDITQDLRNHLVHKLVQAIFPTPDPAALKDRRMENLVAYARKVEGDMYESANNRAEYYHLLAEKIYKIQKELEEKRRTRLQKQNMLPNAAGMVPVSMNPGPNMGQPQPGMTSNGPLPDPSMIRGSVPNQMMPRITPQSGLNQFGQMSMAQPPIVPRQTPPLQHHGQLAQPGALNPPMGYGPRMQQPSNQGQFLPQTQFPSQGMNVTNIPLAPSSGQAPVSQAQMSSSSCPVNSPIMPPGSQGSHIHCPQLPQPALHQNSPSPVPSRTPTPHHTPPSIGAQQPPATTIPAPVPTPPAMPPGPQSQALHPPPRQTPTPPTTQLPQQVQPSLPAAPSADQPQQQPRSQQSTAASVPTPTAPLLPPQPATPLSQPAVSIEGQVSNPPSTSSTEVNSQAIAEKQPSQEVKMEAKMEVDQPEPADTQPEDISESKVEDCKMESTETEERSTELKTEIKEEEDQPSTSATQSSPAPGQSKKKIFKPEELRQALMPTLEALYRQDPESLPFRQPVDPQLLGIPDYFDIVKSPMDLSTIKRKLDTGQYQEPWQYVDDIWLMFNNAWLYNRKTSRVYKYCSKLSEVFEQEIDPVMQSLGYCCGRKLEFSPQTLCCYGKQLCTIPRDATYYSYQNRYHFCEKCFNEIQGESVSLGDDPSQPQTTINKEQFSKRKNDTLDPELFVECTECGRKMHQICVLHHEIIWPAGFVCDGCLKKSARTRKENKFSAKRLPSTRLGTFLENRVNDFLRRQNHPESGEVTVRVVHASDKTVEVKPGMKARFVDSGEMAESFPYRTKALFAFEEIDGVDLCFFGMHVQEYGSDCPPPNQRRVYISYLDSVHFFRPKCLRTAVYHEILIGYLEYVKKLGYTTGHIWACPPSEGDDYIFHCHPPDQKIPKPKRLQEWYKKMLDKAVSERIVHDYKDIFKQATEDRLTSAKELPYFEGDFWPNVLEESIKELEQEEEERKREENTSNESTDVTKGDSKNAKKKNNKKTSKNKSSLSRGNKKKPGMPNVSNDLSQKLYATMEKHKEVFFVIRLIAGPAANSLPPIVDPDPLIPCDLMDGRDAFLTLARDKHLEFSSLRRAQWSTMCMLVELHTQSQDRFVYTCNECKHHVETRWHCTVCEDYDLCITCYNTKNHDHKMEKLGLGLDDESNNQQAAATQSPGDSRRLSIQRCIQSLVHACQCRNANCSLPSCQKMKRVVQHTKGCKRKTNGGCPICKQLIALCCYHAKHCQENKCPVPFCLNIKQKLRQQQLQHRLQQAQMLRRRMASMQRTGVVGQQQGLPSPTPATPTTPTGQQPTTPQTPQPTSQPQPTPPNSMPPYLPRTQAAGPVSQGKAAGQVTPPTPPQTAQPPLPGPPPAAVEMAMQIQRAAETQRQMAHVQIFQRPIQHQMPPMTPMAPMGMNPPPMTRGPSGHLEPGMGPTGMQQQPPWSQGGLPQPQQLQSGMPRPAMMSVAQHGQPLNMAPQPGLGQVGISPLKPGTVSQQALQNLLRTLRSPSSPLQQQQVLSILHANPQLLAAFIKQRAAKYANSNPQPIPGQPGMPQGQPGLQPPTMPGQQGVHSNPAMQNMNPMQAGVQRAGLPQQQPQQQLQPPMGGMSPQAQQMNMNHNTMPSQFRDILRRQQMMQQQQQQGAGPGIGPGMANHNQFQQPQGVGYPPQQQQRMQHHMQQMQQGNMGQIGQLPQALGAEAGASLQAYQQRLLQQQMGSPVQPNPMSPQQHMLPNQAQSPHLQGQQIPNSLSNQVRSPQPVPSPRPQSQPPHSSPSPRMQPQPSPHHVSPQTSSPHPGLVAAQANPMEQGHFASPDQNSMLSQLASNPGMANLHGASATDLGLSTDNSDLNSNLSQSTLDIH

Compound | pIC50 (LNCaP cells) | inhibition at 0.01 µM (P300; [1]) [%] | inhibition at 0.01 µM (P300) [%]
CC(=O)N1CCc2c(c(N3CCCc4cc(-c5cnn(C)c5)c(C(F)F)cc43)nn2C2CCN(C(=O)CN3CCC(CNc4cccc5c4C(=O)N(C4CCC(=O)NC4=O)C5=O)CC3)CC2)C1 (stereo not drawn) [P-123, 4-(((1-(2-(4-(5-Acetyl-3-(7-(difluoromethyl)-6-(1-methyl-1H-pyrazol-4-yl)-3,4-dihydroquinolin-1(2H)-yl)-4,5,6,7-tetrahydro-1H-pyrazolo[4,3-c]pyridin-1-yl)piperidin-1-yl)-2-oxoethyl)piperidin-4-yl)methyl)amino)-2-(2,6-dioxopiperidin-3-yl)isoindoline-1,3-dione] | 7.69 | > 80 | 
CC(=O)N1CCc2c(c(N3CCCc4cc(-c5cnn(C)c5)c(C(F)F)cc43)nn2C2CCN(CCCNC(=O)CNc3cccc4c3C(=O)N(C3CCC(=O)NC3=O)C4=O)CC2)C1 (stereo not drawn) [P-124, N-(3-(4-(5-Acetyl-3-(7-(difluoromethyl)-6-(1-methyl-1H-pyrazol-4-yl)-3,4-dihydroquinolin-1(2H)-yl)-4,5,6,7-tetrahydro-1H-pyrazolo[4,3-c]pyridin-1-yl)piperidin-1-yl)propyl)-2-((2-(2,6-dioxopiperidin-3-yl)-1,3-dioxoisoindolin-4-yl)amino)acetamide] | < 5.00 | < 20 | 
CNC(=O)N1CCc2c(c(N3CCCc4cc(-c5cnn(C)c5)c(C(F)F)cc43)nn2C2CCN(C(=O)CCCCNc3ccc4c(c3)n(C)c(=O)n4C3CCC(=O)NC3=O)CC2)C1 (stereo not drawn) [P-125, 3-(7-(Difluoromethyl)-6-(1-methyl-1H-pyrazol-4-yl)-3,4-dihydroquinolin-1(2H)-yl)-1-(1-(5-((1-(2,6-dioxopiperidin-3-yl)-3-methyl-2-oxo-2,3-dihydro-1H-benzo[d]imidazol-5-yl)amino)pentanoyl)piperidin-4-yl)-N-methyl-1,4,6,7-tetrahydro-5H-pyrazolo[4,3-c]pyridine-5-carboxamide] | 7.38 | > 80 | 
CC(=O)N1CCc2c(c(N3CCCc4cc(-c5cnn(C)c5)c(C(F)F)cc43)nn2C2CCN(C(=O)CCCCNc3ccc4c(c3)n(C)c(=O)n4C3CCC(=O)NC3=O)CC2)C1 (stereo not drawn) [P-126, 3-(5-((5-(4-(5-Acetyl-3-(7-(difluoromethyl)-6-(1-methyl-1H-pyrazol-4-yl)-3,4-dihydroquinolin-1(2H)-yl)-4,5,6,7-tetrahydro-1H-pyrazolo[4,3-c]pyridin-1-yl)piperidin-1-yl)-5-oxopentyl)amino)-3-methyl-2-oxo-2,3-dihydro-1H-benzo[d]imidazol-1-yl)piperidine-2,6-dione] | 7.03 | > 80 | 
CNC(=O)N1CCc2c(c(N3CCCc4cc(-c5cnn(C)c5)c(C(F)F)cc43)nn2C2CCN(C(=O)CCCCNc3cccc4c3n(C)c(=O)n4C3CCC(=O)NC3=O)CC2)C1 (stereo not drawn) [P-127, 3-(7-(Difluoromethyl)-6-(1-methyl-1H-pyrazol-4-yl)-3,4-dihydroquinolin-1(2H)-yl)-1-(1-(5-((1-(2,6-dioxopiperidin-3-yl)-3-methyl-2-oxo-2,3-dihydro-1H-benzo[d]imidazol-4-yl)amino)pentanoyl)piperidin-4-yl)-N-methyl-1,4,6,7-tetrahydro-5H-pyrazolo[4,3-c]pyridine-5-carboxamide] | 6.40 | 20 to 50 | 
CC(=O)N1CCc2c(c(N3CCCc4cc(-c5cnn(C)c5)c(C(F)F)cc43)nn2C2CCN(C(=O)CCCCNc3cccc4c3n(C)c(=O)n4C3CCC(=O)NC3=O)CC2)C1 (stereo not drawn) [P-128, 3-(4-((5-(4-(5-Acetyl-3-(7-(difluoromethyl)-6-(1-methyl-1H-pyrazol-4-yl)-3,4-dihydroquinolin-1(2H)-yl)-4,5,6,7-tetrahydro-1H-pyrazolo[4,3-c]pyridin-1-yl)piperidin-1-yl)-5-oxopentyl)amino)-3-methyl-2-oxo-2,3-dihydro-1H-benzo[d]imidazol-1-yl)piperidine-2,6-dione] | 6.61 | 20 to 50 | 
CNC(=O)N1CCc2c(c(N3CCCc4cc(-c5cnn(C)c5)c(C(F)F)cc43)nn2C2CCN(C(=O)CCCCCCNc3ccc4c(c3)n(C)c(=O)n4C3CCC(=O)NC3=O)CC2)C1 (stereo not drawn) [P-129, 3-(7-(difluoromethyl)-6-(1-methyl-1H-pyrazol-4-yl)-3,4-dihydroquinolin-1(2H)-yl)-1-(1-(7-((1-(2,6-dioxopiperidin-3-yl)-3-methyl-2-oxo-2,3-dihydro-1H-benzo[d]imidazol-5-yl)amino)heptanoyl)piperidin-4-yl)-N-methyl-1,4,6,7-tetrahydro-5H-pyrazolo[4,3-c]pyridine-5-carboxamide] | 9.70 | > 80 | 
CC(=O)N1CCc2c(c(N3CCCc4cc(-c5cnn(C)c5)c(C(F)F)cc43)nn2C2CCN(C(=O)CCCCCCNc3ccc4c(c3)n(C)c(=O)n4C3CCC(=O)NC3=O)CC2)C1 (stereo not drawn) [P-130, 3-(5-((7-(4-(5-acetyl-3-(7-(difluoromethyl)-6-(1-methyl-1H-pyrazol-4-yl)-3,4-dihydroquinolin-1(2H)-yl)-4,5,6,7-tetrahydro-1H-pyrazolo[4,3-c]pyridin-1-yl)piperidin-1-yl)-7-oxoheptyl)amino)-3-methyl-2-oxo-2,3-dihydro-1H-benzo[d]imidazol-1-yl)piperidine-2,6-dione] | 9.30 | > 80 | 
CC(=O)N1CCc2c(c(N3CCCc4cc(-c5cnn(C)c5)c(C(F)F)cc43)nn2C2CCN(C(=O)CN3CCC(CCc4cccc5c4C(=O)N(C4CCC(=O)NC4=O)C5=O)CC3)CC2)C1 (stereo not drawn) [P-131, 4-(2-(1-(2-(4-(5-acetyl-3-(7-(difluoromethyl)-6-(1-methyl-1H-pyrazol-4-yl)-3,4-dihydroquinolin-1(2H)-yl)-4,5,6,7-tetrahydro-1H-pyrazolo[4,3-c]pyridin-1-yl)piperidin-1-yl)-2-oxoethyl)piperidin-4-yl)ethyl)-2-(2,6-dioxopiperidin-3-yl)isoindoline-1,3-dione] | 7.85 | > 80 | 
CC(=O)N1CCc2c(c(N3CCCc4cc(-c5cnn(C)c5)c(C(F)F)cc43)nn2C2CCN(CCCCCCCc3cccc4c3C(=O)N(C3CCC(=O)NC3=O)C4=O)CC2)C1 (stereo not drawn) [P-132, 4-(7-(4-(5-Acetyl-3-(7-(difluoromethyl)-6-(1-methyl-1H-pyrazol-4-yl)-3,4-dihydroquinolin-1(2H)-yl)-4,5,6,7-tetrahydro-1H-pyrazolo[4,3-c]pyridin-1-yl)piperidin-1-yl)heptyl)-2-(2,6-dioxopiperidin-3-yl)isoindoline-1,3-dione] | 7.77 | 20 to 50 | 
CC(=O)N1CCc2c(c(N3CCCc4cc(-c5cnn(CC(=O)NCCCCCCCNc6ccc7c(c6)C(=O)N(C6CCC(=O)NC6=O)C7=O)c5)c(C(F)F)cc43)nn2C2CCOCC2)C1 (stereo not drawn) [P-133, 2-(4-(1-(5-acetyl-1-(tetrahydro-2H-pyran-4-yl)-4,5,6,7-tetrahydro-1H-pyrazolo[4,3-c]pyridin-3-yl)-7-(difluoromethyl)-1,2,3,4-tetrahydroquinolin-6-yl)-1H-pyrazol-1-yl)-N-(7-((2-(2,6-dioxopiperidin-3-yl)-1,3-dioxoisoindolin-5-yl)amino)heptyl)acetamide] | 8.40 | > 80 | 
CC(=O)N1CCc2c(c(N3CCCc4cc(-c5cnn(C)c5)c(C(F)F)cc43)nn2C2CCN(C(=O)CCCCCCCn3c(=O)n(C4CCC(=O)NC4=O)c4ccccc43)CC2)C1 (stereo not drawn) [P-135, 3-(3-(8-(4-(5-acetyl-3-(7-(difluoromethyl)-6-(1-methyl-1H-pyrazol-4-yl)-3,4-dihydroquinolin-1(2H)-yl)-4,5,6,7-tetrahydro-1H-pyrazolo[4,3-c]pyridin-1-yl)piperidin-1-yl)-8-oxooctyl)-2-oxo-2,3-dihydro-1H-benzo[d]imidazol-1-yl)piperidine-2,6-dione] | 9.15 |  | > 80
CC(=O)N1CCc2c(c(N3CCCc4cc(-c5cnn(C)c5)c(C(F)F)cc43)nn2C2CCN(C(=O)CN3CCOC(CNc4cccc5c4C(=O)N(C4CCC(=O)NC4=O)C5=O)C3)CC2)C1 (stereo not drawn) [P-141, 4-(((4-(2-(4-(5-Acetyl-3-(7-(difluoromethyl)-6-(1-methyl-1H-pyrazol-4-yl)-3,4-dihydroquinolin-1(2H)-yl)-4,5,6,7-tetrahydro-1H-pyrazolo[4,3-c]pyridin-1-yl)piperidin-1-yl)-2-oxoethyl)morpholin-2-yl)methyl)amino)-2-(2,6-dioxopiperidin-3-yl)isoindoline-1,3-dione] | 6.81 | 50 to 80 | 
CC(=O)N1CCc2c(c(N3CCCc4cc(-c5cnn(C)c5)c(C(F)F)cc43)nn2C2CCN(CCN3CCOC(CNc4cccc5c4C(=O)N(C4CCC(=O)NC4=O)C5=O)C3)CC2)C1 (stereo not drawn) [P-142] | 9.52 | > 80 | 
CC(=O)N1CCc2c(c(N3CCCc4cc(-c5cnn(C)c5)c(C(F)F)cc43)nn2C2CCN(CCN3CCC(CNc4cccc5c4C(=O)N(C4CCC(=O)NC4=O)C5=O)CC3)CC2)C1 (stereo not drawn) [P-143, 4-(((1-(2-(4-(5-acetyl-3-(7-(difluoromethyl)-6-(1-methyl-1H-pyrazol-4-yl)-3,4-dihydroquinolin-1(2H)-yl)-4,5,6,7-tetrahydro-1H-pyrazolo[4,3-c]pyridin-1-yl)piperidin-1-yl)ethyl)piperidin-4-yl)methyl)amino)-2-(2,6-dioxopiperidin-3-yl)isoindoline-1,3-dione] | 8.82 |  | > 80
